Experimental data taken from ChEMBL document CHEMBL3507680, “University of Dundee, Gates Library screen for HepG2 cell viability”.

Test: Human HepG2 cell viability assay in 384 well format
Assay type: toxicity, cell-based
Parameters: dose 125 nL, time 70.5 hour; concentration not given beside the values
Details: HepG2 cells, read-out: Inhibition

**Q.** Which cytotoxicity at 70.5 h does the source give for O=C(NCCN1CCOCC1)N(CCCO)C1CCCc2ccccc21 (stereo not given) here?
**A.** -2.32%

**Q.** With CC(C)C(=O)N1CCN(Cc2csc(-c3ccccn3)n2)CC1 as the molecule, how does the cytotoxicity at 70.5 h read?
**A.** -7.7%

**Q.** For COc1cc(NC(=O)c2ccc(C)c(F)c2)c(C(=O)N(C)C)cc1OC, which cytotoxicity at 70.5 h is on record?
**A.** -12.5%

**Q.** With Cc1ccc(S(=O)(=O)Nc2ccc(-n3cccc3C(=O)O)c(C)c2)cc1 as the molecule, how does the cytotoxicity at 70.5 h read?
**A.** -6.38%

**Q.** Which cytotoxicity at 70.5 h does the source give for CCC(CC)C(=O)NCc1cn2cc(Br)ccc2n1 here?
**A.** -8.77%

**Q.** For COc1c(Br)cccc1CCNC(=O)c1ncoc1C, which cytotoxicity at 70.5 h is on record?
**A.** 9.9%

**Q.** Which cytotoxicity at 70.5 h does the source give for CN(Cc1ccccn1)C(=O)c1ccc2c(c1O)OC(C)(C)C2 here?
**A.** 11.6%

**Q.** With Cc1oc(-c2ccc(Cl)cc2)nc1C(=O)NC1=NCCS1 as the molecule, how does the cytotoxicity at 70.5 h read?
**A.** 11.2%

**Q.** With CC(c1ccccc1)N(C)C(=O)CN1CCCc2cc(F)cc(F)c21 (stereo not given) as the molecule, how does the cytotoxicity at 70.5 h read?
**A.** 12.8%

**Q.** With O=C(CNc1cc(Br)ccc1Br)NC1CCS(=O)(=O)C1 (stereo not given) as the molecule, how does the cytotoxicity at 70.5 h read?
**A.** -14.1%

**Q.** Which cytotoxicity at 70.5 h does the source give for Cc1oc(-c2ccccc2)nc1CC(=O)NC1=NCCS1 here?
**A.** -11%

**Q.** With NC(=O)C1CCN(CC(=O)N2CCCC2c2ccsc2)CC1 (stereo not given) as the molecule, how does the cytotoxicity at 70.5 h read?
**A.** -4.16%

**Q.** With Cc1nnc2n1CCN(C(=O)CN1C(=O)C(C)Oc3ccccc31)C2 (stereo not given) as the molecule, how does the cytotoxicity at 70.5 h read?
**A.** -7.32%

**Q.** For Clc1cncc(NCc2cccc(COC3CCOCC3)c2)n1, which cytotoxicity at 70.5 h is on record?
**A.** -6.08%

**Q.** Which cytotoxicity at 70.5 h does the source give for CS(=O)(=O)CCCOc1cccc(-n2cccn2)c1 here?
**A.** 12.8%

**Q.** Which cytotoxicity at 70.5 h does the source give for CCN1CCN(S(=O)(=O)c2c[nH]c(C(C)C)n2)c2ccccc21 here?
**A.** -5.4%

**Q.** Which cytotoxicity at 70.5 h does the source give for CC(C)Cc1noc(COc2ccc(N(C)C(N)=O)cc2)n1 here?
**A.** -6.27%

**Q.** With Clc1cnccc1NCc1cccc(COC2CCOCC2)c1 as the molecule, how does the cytotoxicity at 70.5 h read?
**A.** -0.494%

**Q.** For O=C(C1CCCOC1)N1CCc2ccc(F)cc21 (stereo not given), which cytotoxicity at 70.5 h is on record?
**A.** 1.26%

**Q.** For Cc1noc(C)c1CNc1ccc2nc(C3CC3)sc2c1, which cytotoxicity at 70.5 h is on record?
**A.** -1.96%

**Q.** For O=C1CC2(CCSC2)C(=O)N1Cc1ncc(-c2ccccc2)o1 (stereo not given), which cytotoxicity at 70.5 h is on record?
**A.** -2.34%

**Q.** Which cytotoxicity at 70.5 h does the source give for O=C(CC(F)(F)F)NC(c1ccc(Cl)cc1)c1ncon1 (stereo not given) here?
**A.** -3.08%

**Q.** Which cytotoxicity at 70.5 h does the source give for CN(Cc1nnc(C2CC2)o1)C(c1ccc(F)cc1)c1cccnc1 (stereo not given) here?
**A.** 0.0755%

**Q.** With CC(C)CC(C(=O)N(C)Cc1ncnn1C)N1CCCCC1=O (stereo not given) as the molecule, how does the cytotoxicity at 70.5 h read?
**A.** -2.2%

**Q.** With CC(CCNC(=O)N1CCC1)N(C)C(=O)OC(C)(C)C (stereo not given) as the molecule, how does the cytotoxicity at 70.5 h read?
**A.** -0.749%

**Q.** For O=C(c1ncoc1-c1ccco1)N(Cc1ccco1)CC1CCCO1 (stereo not given), which cytotoxicity at 70.5 h is on record?
**A.** -3.69%

**Q.** With Cc1ccc(CNCc2c[nH]nc2C(C)(C)C)c(OC2CCOC2)c1 (stereo not given) as the molecule, how does the cytotoxicity at 70.5 h read?
**A.** -5.05%

**Q.** For CC(C)NC(=O)CN(C)CC(=O)/N=c1/cc[nH]n1C(C)C1CC1 (stereo not given), which cytotoxicity at 70.5 h is on record?
**A.** 34.2%

**Q.** For COc1c(C)cnc(CNC(=O)CCOCC(C)C)c1C, which cytotoxicity at 70.5 h is on record?
**A.** -4.31%

**Q.** With CC(C)Cn1ncc2cc(C(=O)N(C)CCc3ccccc3)cnc21 as the molecule, how does the cytotoxicity at 70.5 h read?
**A.** -8.96%

**Q.** For Cc1occc1C(=O)N1CCC(C(O)c2ccc(F)cc2)CC1 (stereo not given), which cytotoxicity at 70.5 h is on record?
**A.** -4.29%

**Q.** For CC(C1CC1)n1nccc1NC(=O)CN(C)C(=O)OC(C)(C)C (stereo not given), which cytotoxicity at 70.5 h is on record?
**A.** 27.9%

**Q.** Which cytotoxicity at 70.5 h does the source give for Cc1nc(CNc2ncc(Br)cn2)n[nH]1 here?
**A.** -5.62%

**Q.** For CC(C)C(C)N(C(=O)c1cc2c([nH]c1=O)CCCC2=O)C1CC1 (stereo not given), which cytotoxicity at 70.5 h is on record?
**A.** -7.9%

**Q.** With CS(=O)(=O)N1CCOC2(CCCC2)C1 as the molecule, how does the cytotoxicity at 70.5 h read?
**A.** -5.25%

**Q.** For O=c1[nH]nc(CNc2ncc(Br)cn2)[nH]1, which cytotoxicity at 70.5 h is on record?
**A.** -2.47%

**Q.** With OCCCNC1CCc2cc3c(cc21)OCCO3 (stereo not given) as the molecule, how does the cytotoxicity at 70.5 h read?
**A.** -4.1%

**Q.** Which cytotoxicity at 70.5 h does the source give for CC(=O)N(C)CCc1nc(-c2cc(C(N)=O)co2)cs1 here?
**A.** -6.25%

**Q.** For CC(C)c1cccc(-n2cc(O)c(C(N)=O)n2)c1, which cytotoxicity at 70.5 h is on record?
**A.** 25.8%

**Q.** Which cytotoxicity at 70.5 h does the source give for CC(C)CCN(C)C(=O)c1cnc2c(cnn2CC(C)C)c1 here?
**A.** 1.58%

**Q.** With CC1CCCN(S(=O)(=O)N2CCOC3(CCCC3)C2)C1 (stereo not given) as the molecule, how does the cytotoxicity at 70.5 h read?
**A.** 10.1%

**Q.** With Cc1cc(CNC(=O)c2cc(C(C)C)n(C)n2)ccc1S(C)(=O)=O as the molecule, how does the cytotoxicity at 70.5 h read?
**A.** -8.39%

**Q.** Which cytotoxicity at 70.5 h does the source give for COCCN(CCN(C)C)C(=O)NC1CCc2ccccc2C1 (stereo not given) here?
**A.** -5.75%

**Q.** Which cytotoxicity at 70.5 h does the source give for O=S(=O)(c1cccnc1)N1CCN(CC(O)c2ccccc2)CC1 (stereo not given) here?
**A.** -3.21%

**Q.** Which cytotoxicity at 70.5 h does the source give for NC(=O)NC(CC(=O)NCCc1cccc(F)c1)c1cccs1 (stereo not given) here?
**A.** 17%

**Q.** Which cytotoxicity at 70.5 h does the source give for Cc1cc(NC(=O)CN(CC(C)O)c2ccccc2)on1 (stereo not given) here?
**A.** -3.15%

**Q.** With CC(=O)NCCSCCOc1cccc(Br)c1 as the molecule, how does the cytotoxicity at 70.5 h read?
**A.** 17.6%

**Q.** With O=C(CCc1ccccn1)NCC(O)c1ccc(Cl)cc1Cl (stereo not given) as the molecule, how does the cytotoxicity at 70.5 h read?
**A.** -1.56%

**Q.** Which cytotoxicity at 70.5 h does the source give for O=C(CCCc1ccccn1)NCC(O)c1ccccc1Cl (stereo not given) here?
**A.** 3.77%

**Q.** Which cytotoxicity at 70.5 h does the source give for CSc1nc(C2CC2)nc(C)c1C(=O)NCc1ncc(C)o1 here?
**A.** -2.47%

**Q.** With Cc1nc(CNC(=O)NC2CCN(c3ncccc3Cl)C2)no1 (stereo not given) as the molecule, how does the cytotoxicity at 70.5 h read?
**A.** -3.51%

**Q.** Which cytotoxicity at 70.5 h does the source give for O=C(NCc1cscn1)NC1CCN(c2ncccc2Cl)C1 (stereo not given) here?
**A.** -2.49%

**Q.** For CC(C)c1ccc(S(=O)(=O)NC2(CC(N)=O)CCC2)cc1, which cytotoxicity at 70.5 h is on record?
**A.** 2.8%

**Q.** With CC(C)n1ncc2c1NC(=O)C(C#N)C21CCCCC1 (stereo not given) as the molecule, how does the cytotoxicity at 70.5 h read?
**A.** -9.51%

**Q.** For CC(C)C(NC(=O)c1ccc(Cl)cc1Cl)C(=O)Nc1ccn(C)n1 (stereo not given), which cytotoxicity at 70.5 h is on record?
**A.** 1.6%

**Q.** For COC(=O)CN(Cc1ccccc1C)C(=O)COCC1CC1, which cytotoxicity at 70.5 h is on record?
**A.** -2.06%

**Q.** Which cytotoxicity at 70.5 h does the source give for CN(C(=O)c1cccnc1OCC(F)F)c1ccc2c(c1)CCO2 here?
**A.** -9.98%

**Q.** For CCN(C)CC1CCN(C(=O)Nc2ccc(C)cc2)C1 (stereo not given), which cytotoxicity at 70.5 h is on record?
**A.** -3.05%

**Q.** Which cytotoxicity at 70.5 h does the source give for Cc1ncc(CN(C)CC(O)c2cccc(C(F)(F)F)c2)s1 (stereo not given) here?
**A.** 17.1%

**Q.** For Cc1n[nH]c2ncc(CNC3CCN(Cc4ccccn4)CC3)cc12, which cytotoxicity at 70.5 h is on record?
**A.** -6.34%
